This passage reports Ki and Km results from ChEMBL document CHEMBL1132012, “Synthesis and sulfatase inhibitory activities of (E)- and (Z)-4-hydroxytamoxifen sulfamates” (Bioorg Med Chem Lett, 1999).

One data set has as its target T1, Steryl-sulfatase (Rattus norvegicus, UniProt P15589).
T1 sequence (P15589 whole entry): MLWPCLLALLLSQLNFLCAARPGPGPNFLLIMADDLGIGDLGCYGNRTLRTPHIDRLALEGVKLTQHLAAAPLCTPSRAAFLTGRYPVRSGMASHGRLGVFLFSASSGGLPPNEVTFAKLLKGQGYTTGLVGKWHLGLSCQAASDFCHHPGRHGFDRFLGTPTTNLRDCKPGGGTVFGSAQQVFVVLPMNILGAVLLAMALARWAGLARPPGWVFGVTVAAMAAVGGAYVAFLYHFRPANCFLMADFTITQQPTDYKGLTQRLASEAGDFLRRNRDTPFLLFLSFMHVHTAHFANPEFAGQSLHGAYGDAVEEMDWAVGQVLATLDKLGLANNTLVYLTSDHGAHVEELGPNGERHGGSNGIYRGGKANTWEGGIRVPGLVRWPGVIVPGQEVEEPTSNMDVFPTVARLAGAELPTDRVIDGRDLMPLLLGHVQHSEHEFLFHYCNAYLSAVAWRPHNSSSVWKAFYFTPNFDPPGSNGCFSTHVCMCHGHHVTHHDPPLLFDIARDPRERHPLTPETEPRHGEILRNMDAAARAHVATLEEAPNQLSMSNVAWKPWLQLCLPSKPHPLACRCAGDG
Kind of data set: (§1) In vitro binding affinity against estrone sulfatase in rat liver microsomes. More on the design: species or system Microsome. On the technique in general: Liver microsomes are a subcellular fraction often used to study metabolism.

Substrate in data set [1]: C[C@]12CC[C@@H]3c4ccc(OS(=O)(=O)O)cc4CC[C@H]3[C@@H]1CCC2=O
The data set is described as §1. The conditions noted are these: Microsome.

Regarding `CC/C(=C(\c1ccc(OCCN(C)C)cc1)c1ccc(OS(N)(=O)=O)cc1)c1ccccc1`, the Ki – broadly, the equilibrium dissociation constant of an inhibitor or competing ligand from its target – at Steryl-sulfatase was more than 500 µM. The molecule `CC/C(=C(/c1ccc(OCCN(C)C)cc1)c1ccc(OS(N)(=O)=O)cc1)c1ccccc1` returned a Ki on Steryl-sulfatase of 35.9 µM.

B1: Steryl-sulfatase (Rattus norvegicus), P15589 (protein)
chain: MLWPCLLALLLSQLNFLCAARPGPGPNFLLIMADDLGIGDLGCYGNRTLRTPHIDRLALEGVKLTQHLAAAPLCTPSRAAFLTGRYPVRSGMASHGRLGVFLFSASSGGLPPNEVTFAKLLKGQGYTTGLVGKWHLGLSCQAASDFCHHPGRHGFDRFLGTPTTNLRDCKPGGGTVFGSAQQVFVVLPMNILGAVLLAMALARWAGLARPPGWVFGVTVAAMAAVGGAYVAFLYHFRPANCFLMADFTITQQPTDYKGLTQRLASEAGDFLRRNRDTPFLLFLSFMHVHTAHFANPEFAGQSLHGAYGDAVEEMDWAVGQVLATLDKLGLANNTLVYLTSDHGAHVEELGPNGERHGGSNGIYRGGKANTWEGGIRVPGLVRWPGVIVPGQEVEEPTSNMDVFPTVARLAGAELPTDRVIDGRDLMPLLLGHVQHSEHEFLFHYCNAYLSAVAWRPHNSSSVWKAFYFTPNFDPPGSNGCFSTHVCMCHGHHVTHHDPPLLFDIARDPRERHPLTPETEPRHGEILRNMDAAARAHVATLEEAPNQLSMSNVAWKPWLQLCLPSKPHPLACRCAGDG
Regarding B1, in data set [1], the Michaelis-Menten constant (Km) (in general, the concentration of substrate that gives half-maximal velocity) turned out to be 90.2 µM.
